Results: PMC12305873, “Chlorinated biscoumarins inhibit chikungunya virus replication in cell-based and animal models” (Emerging Microbes & Infections, 2025)

Experiments:
[1] = system: dengue virus NS5 methyltransferase (MTase); set-up: method as in Loeanurit et al., under review; details: targeting the SAM binding site; ref Loeanurit et al., under review; cited from earlier work
CHIKV nsP1 = CHIKV nsP1 (Chikungunya virus, UniProt Q8JUX6); test: MTase-Glo methyltransferase assay; details: At 50 µM (method: 100 µM), purified CHIKV nsP1
C57BL/6 mice = test: Single-dose acute oral toxicity in mice
[2] = Cytotoxicity assay alongside the replicon assay; details: hamster
CHIKV [3] = test: CHIKV plaque assay in HEK 293 cells; details: Chikungunya virus, HEK293, read-out: EC50, CHIKV inhibition
CHIKV [4] = test: Time-of-addition and time-of-removal assay in Vero cells; details: 10 µM, MOI 1
CHIKV [5] = test: Cell-based anti-attachment assay in Vero cells; details: 10 µM
[6] = Pharmacokinetic study in mice
[7] = Cytotoxicity by MTS assay in HEK 293 cells; details: human
CHIKV [8] = test: In vivo anti-CHIKV efficacy, CHIKV-induced arthritis mouse model
CHIKV [9] = test: CHIKV plaque assay in Vero cells; details: Chikungunya virus, read-out: EC50, CHIKV inhibition
CHIKV replicon = CHIKV replicon inhibition assay (Renilla luciferase) in BHK-21 cells; details: Chikungunya virus, BHK-21, 24 h, read-out: EC50, CHIKV replicon inhibition (printed IC50 in Figure 2g,h and b75)
[10] = Pharmacokinetic study in rats; details: rat
Sprague Dawley rats = test: ALT and Cr levels in rat plasma samples of the PK study; details: single oral 250 mg/kg, plasma at 24, 48, 72 h
[11] = single oral dose 250 or 500 mg/kg
[12] = C57BL/6, mouse, in vivo, po, 250 mg/kg
[13] = mice, oral 250 mg/kg, mean ± SD
[14] = compounds single oral 250 mg/kg, ribavirin 50 mg/kg BID IP
[15] = Sprague Dawley, in vivo, po, 250 mg/kg
[16] = oral 250 mg/kg, mean ± SD, 250 mg/kg

Chain of CHIKV nsP1 (Q8JUX6 1-535): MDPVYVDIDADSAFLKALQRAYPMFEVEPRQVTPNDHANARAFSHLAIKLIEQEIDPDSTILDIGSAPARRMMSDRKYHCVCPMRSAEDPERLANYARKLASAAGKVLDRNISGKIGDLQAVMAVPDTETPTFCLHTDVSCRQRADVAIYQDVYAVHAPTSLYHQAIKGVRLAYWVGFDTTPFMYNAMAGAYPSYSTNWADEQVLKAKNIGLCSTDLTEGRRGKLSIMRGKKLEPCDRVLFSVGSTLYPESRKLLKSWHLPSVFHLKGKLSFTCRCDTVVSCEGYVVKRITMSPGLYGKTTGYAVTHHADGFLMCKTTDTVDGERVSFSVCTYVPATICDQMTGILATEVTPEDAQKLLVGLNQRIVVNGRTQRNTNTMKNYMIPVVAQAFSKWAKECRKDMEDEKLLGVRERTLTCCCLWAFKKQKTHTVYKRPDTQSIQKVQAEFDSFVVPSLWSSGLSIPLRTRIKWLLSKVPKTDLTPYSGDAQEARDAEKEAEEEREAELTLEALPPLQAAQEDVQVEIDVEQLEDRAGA

For `O=c1oc2ccccc2c(O)c1C(c1ccc(Cl)cc1)c1c(O)c2ccccc2oc1=O` [compound 4, 3,3′-((4-chlorophenyl)methylene)bis(4-hydroxy-2H-chromen-2-one)], the “Inhibition of dengue virus NS5 methyltransferase” value [1] is listed as “inhibitors of the dengue virus NS5 methyltransferase (MTase)”, the “nsP1 methyltransferase enzymatic activity vs DMSO control” value (CHIKV nsP1) is listed as “significantly inhibited enzymatic activity” and the Activity scores (C57BL/6 mice; [11]) is listed as “no significant difference in activity scores”. The Kidney histology (C57BL/6 mice; [11]) was “remained within normal limits”, the “Liver (ALT) and kidney (creatinine) biomarkers” value (C57BL/6 mice; single oral dose 250 or 500 mg/kg, days 1, 3, 7) was “remained within normal limits” and the “Survival and clinical signs over 7 days” value (C57BL/6 mice; single oral dose 250 or 500 mg/kg, mice) was “All animals survived”. The Liver histology (C57BL/6 mice; single oral dose, day 1, also seen in vehicle-treated animals) was “Mild, transient hepatocellular vacuolization”, the “Tolerability of a single oral dose” value (C57BL/6 mice; up to 500 mg/kg, mice) was “well tolerated” and the CC50 [2] was 79.87 ± 0.4 µM. The EC50 (CHIKV [3]) was 4.65 ± 0.56 µM, the “Time-of-addition time-points significantly different from DMSO control” value (CHIKV [4]) was 1–6 hpi and the “Viral titres in time-of-addition (TOA) assay” value (CHIKV [4]) was “significantly reduced viral titres when added up to 9 hpi”. The “CHIKV inhibition, post-incubation or throughout” value (CHIKV [5]; Vero, MOI 0.1, 24 hpi) was “robust antiviral activity was observed”, the “CHIKV inhibition, pre-treatment, pre-incubation or co-incubation” value (CHIKV [5]; Vero, MOI 0.1, 24 hpi) was “Neither compound exhibited significant inhibition” and the “Effect of compound pre-treatment on viral replication” value (CHIKV [5]; cells treated 1 h before virus) was “enhanced the viral replication”. It also gave an AUC [6, 12] of 2750 µg·h/mL, an AUC(0-inf) [6, 12] of 2750 ± 927 µg·h/mL and an AUC(0-t) [6, 12] of 2750 ± 927 µg·h/mL. It also gave a CL/F [6, 12] of 1.67 mL/min/kg, an MRT inf [6, 12] of 10.1 ± 0.366 h and an MRT last [6, 12] of 10.1 ± 0.356 h. It also gave a Tmax [6, 12] of 6 h, a Cmax ([6]; C57BL/6, mouse, in vivo, po, 250 mg/kg, Cmax, mice, oral 250 mg/kg, mean ± SD) of 197 ± 77 µg/mL and a half-life ([6]; C57BL/6, mouse, in vivo, po, 250 mg/kg, HL (half-life), mice, oral 250 mg/kg, mean ± SD) of 3.42 h. For the same compound, the Cmax ([6]; C57BL/6, mouse, in vivo, po, 250 mg/kg, Peak plasma concentration (Cmax), mice, oral 250 mg/kg) was 197 µg/mL, the “Time within which plasma concentration fell below EC90 and EC50” value ([6]; mice, oral 250 mg/kg) was 24 to 48 h and the “AUC_% Extrap_obs” value [6, 13] was 0.018 ± 0.014%. For the same compound, the Vz_F_obs [6, 13] was 0.494 ± 0.200 L/kg, the “HL (half-life)” value ([6]; mice, oral 250 mg/kg, mean ± SD, 250 mg/kg) was 3.422 ± 0.419 h and the CC50 at 2 days [7] was 44.4 ± 1.48 µM. The “PMN infiltration in footpad (H&E), day 1” value (CHIKV [8]; [14]) was “reduced PMN infiltration on day 1”, the “PMN infiltration in footpad (H&E), days 2 and 3” value (CHIKV [8]; [14]) was “PMN infiltration persisting at moderate levels” and the “CHIKV titres in footpad tissues, plaque assay, day 2 post-infection” value (CHIKV [8]; single oral 250 mg/kg) was “significantly reduced CHIKV titres in footpad tissues”. The “Systemic viremia (plasma CHIKV titres, plaque assay)” value (CHIKV [8]; single oral 250 mg/kg) was “no marked reduction in systemic viremia”, the “Foot swelling and activity vs vehicle group” value (CHIKV [8]; single oral 250 mg/kg at 24 h after infection, transient, not significantly different from vehicle) was “moderate improvement in foot swelling and activity” and the EC50 (CHIKV [9]) was 2.9 ± 0.25 µM. For the same compound, the EC50 (CHIKV replicon) was 5.04 ± 0.23 µM, the AUC [10, 15] was 4180 µg·h/mL and the AUC(0-inf) [10, 15] was 4440 ± 1730 µg·h/mL. For the same compound, the AUC(0-t) [10, 15] was 4180 ± 1640 µg·h/mL, the CL/F [10, 15] was 1.08 mL/min/kg and the MRT inf [10, 15] was 26.77 ± 0.127 h. The MRT last [10, 15] was 22.2 ± 0.801 h, the Cmax ([10]; Sprague Dawley, in vivo, po, 250 mg/kg, Cmax, oral 250 mg/kg, mean ± SD) was 133 ± 40.8 µg/mL and the half-life ([10]; Sprague Dawley, in vivo, po, 250 mg/kg, HL (half-life), oral 250 mg/kg, mean ± SD) was 16.6 h. For the same compound, the Cmax ([10]; Sprague Dawley, in vivo, po, 250 mg/kg, Peak plasma concentration (Cmax), rats, oral 250 mg/kg) was 133 µg/mL, the Tmax ([10]; Sprague Dawley, in vivo, po, 250 mg/kg, Tmax, oral 250 mg/kg, mean ± SD) was 10.7 h and the “AUC_% Extrap_obs” value ([10]; oral 250 mg/kg, mean ± SD) was 6.119 ± 0.999%. For the same compound, the Vz_F_obs ([10]; oral 250 mg/kg, mean ± SD) was 1.596 ± 0.946 L/kg, the “HL (half-life)” value [10, 16] was 16.649 ± 1.601 h and the Tmax [10, 16] was 10.667 ± 2.309 h. For the same compound, the “ALT and Cr levels” value (Sprague Dawley rats) was “within normal limits”.
